# Source: patent US20240216395A1, “19-NOR C3,3-DISUBSTITUTED C21 -N-PYRAZOLYL STEROID FOR USE IN TREATING MAJOR DEPRESSIVE DISORDER AND […]” (priority 2021, published 2024)
# Where two headings read alike, the source gives them in different places.
# How the values were obtained:
# [1] = Abuse potential main study: plasma pharmacokinetics after a single oral dose; format: in vivo, human; conditions: for Tmax / half-life / AUC(0-t) / Cmax: human, plasma
# Protocol: Safety and tolerability endpoints included the frequency and severity of AEs and SAEs, the change from baseline in clinical laboratory assessments, vital signs, and ECG, and suicidality assessed by the Columbia-Suicide Severity Rating Scale (C-SSRS).
# During the treatment phase, PK measures were assessed predose and at multiple time points, from 0.5 to 24 hours after dosing. Blood samples collected for plasma analyses were kept frozen (approximately −70° C. to −80° C.) until analysis. The quantification of the Compound (1) plasma concentration was performed by a bioanalytical laboratory (PRA Health Sciences, Lenexa, Kansas) using a validated liquid chromatography with a tandem mass spectroscopic method. The validated range of the assay was 1.00 to 500 ng/ml.
# All PK analyses were based on the PK analysis set. Descriptive statistics included sample size, arithmetic mean, standard deviation, arithmetic coefficient of variation (CV), first quartile, median, and the minimum and maximum values […]. For summary statistics, PK concentration values below the limit of quantification were treated as zero. For calculating PK parameters, PK concentration values of zero that occurred prior to or after the first quantifiable concentration were imputed as zero or missing, respectively. The Compound (1) plasma PK parameters were estimated for each participant using noncompartmental analysis (Phoenix® WinNonlin® version 8.0 or later). The estimation of the terminal-elimination rate constant (λz) and λz-derived PK parameters were dependent upon inspection of PK data and a minimum of three time points in the terminal phase with adjusted R2 ≥0.8.
# [2] = tested on: nondependent, recreational users of CNS depressants; assay: Abuse potential study, dose selection phase: TEAEs; format: in vivo, human
# Protocol: After a screening period of up to 21 days, eligible participants were randomized 3:1 to receive single escalating doses of Compound (1) (60, 80, or 90 mg) or matching placebo in 3 separate cohorts; Compound (1) was administered during 4 days of inpatient administration (FIG. 30A). Sentinel dosing was employed for each cohort, with one participant randomized to receive Compound (1) and one to receive placebo on Day 1. The remaining 6 participants (Compound (1), 5; placebo, 1) were dosed approximately 24 hours later after monitoring the safety and tolerability endpoints. Dose-escalation cohorts were separated by at least 7 days. If a dose was not well tolerated based on the safety data, doses in subsequent cohorts were to be modified, and Compound (1) dose was not allowed to exceed 90 mg. Participants underwent a 1-day, follow-up visit 7 (±2) days after the end of the treatment and were not permitted to participate in the main study.
# For the first part, dose selection, endpoints included the observer-rated Modified Observer's Assessment of Alertness/Sedation (MOAA/S) scores along with safety and tolerability endpoints which included the Columbia-Suicide Severity Rating Scale (C-SSRS), frequency and severity of adverse events (AE) and serious adverse events (SAEs), and changes from baseline in clinical laboratory assessments, vital signs, and electrocardiogram (ECG).
# The dose selection safety set included all participants who received 1 dose of Compound (1). The main study qualification safety set included all participants who received ≥1 dose of alprazolam. For the treatment phase, the randomized set included all participants who were randomized and the safety set included all participants who received ≥1 dose of Compound (1) or alprazolam. The completer set included all participants in the randomized set who completed all treatment periods, had sufficient data for evaluation of the primary endpoint, and had ≥1 observation within 2 hours of Tmax for each treatment for Drug Liking VAS scores. […] The PK set included all participants in the treatment phase who received 1 dose of Compound (1) and had 1 PK sample after dosing.
structure (smiles),measurement,setting,value
"C[C@@]1(O)CC[C@H]2[C@H](CC[C@@H]3[C@@H]2CC[C@]2(C)[C@@H](C(=O)Cn4cc(C#N)cn4)CC[C@@H]32)C1 [Compound (1), 1-(2-((3R,5R,8R,9R,10S,13S,14S,17S)-3-hydroxy-3,13-dimethylhexadecahydro-1H-cyclopenta[a]phenanthren-17-yl)-2-oxoethyl)-1H-pyrazole-4-carbonitrile]","AUC0-24, geometric mean",[1]; 60 mg single oral dose,982 ng·h/mL
same,"T½ values, range over doses","[1]; 30, 60, 90 mg, capsule",10 to 11 h
same,Tmax,"[1]; oral, 90 mg, 30, 60, 90 mg, capsule, read-out: Tmax (median), all three doses",5.1 h
same,half-life,"[1]; oral, 90 mg, 30, 60, 90 mg, capsule, read-out: T½ values, range over doses",9.92 to 10.9 h
same,AUC(0-t),"[1]; oral, 30, 60, 90 mg, read-out: AUC0-24 values, range over doses",520 to 1330 ng·h/mL
same,Cmax,"[1]; oral, 30, 60, 90 mg, read-out: Cmax geometric mean values, range over doses",55.5 to 123 ng/mL
same,half-life,"[1]; po, 30 mg, 30 mg single oral dose (n = 66), read-out: T½, geometric mean (converted)",10.1 h
same,Tmax,"[1]; po, 30 mg, 30 mg single oral dose, read-out: Tmax, median",5.1 h
same,half-life,"[1]; po, 60 mg, 60 mg single oral dose (n = 60), read-out: T½, geometric mean (converted)",9.9 h
same,Tmax,"[1]; po, 60 mg, 60 mg single oral dose, read-out: Tmax, median",5.1 h
same,half-life,"[1]; po, 90 mg, 90 mg single oral dose (n = 62), read-out: T½, geometric mean (converted)",10.9 h
same,Tmax,"[1]; po, 90 mg, 90 mg single oral dose, read-out: Tmax, median",5.1 h
same,Cmax,"[1]; 30 mg single oral dose (n = 65), read-out: Cmax, geometric mean",55.5 ng/mL
same,AUC(0-t),"[1]; 30 mg single oral dose, read-out: AUC0-24, geometric mean",520 ng·h/mL
same,Cmax,"[1]; 60 mg single oral dose (n = 66), read-out: Cmax, geometric mean",97.6 ng/mL
same,Cmax,"[1]; 90 mg single oral dose (n = 67), read-out: Cmax, geometric mean",123 ng/mL
same,AUC(0-t),"[1]; 90 mg single oral dose, read-out: AUC0-24, geometric mean",1330 ng·h/mL
same,Any TEAE,[2]; 60 mg (n = 6),5 (83.3) n (%)
same,Asthenopia (TEAE),[2]; 60 mg (n = 6),0 n (%)
same,Blood bilirubin increased (TEAE),[2]; 60 mg (n = 6),0 n (%)
same,Disturbance in attention (TEAE),[2]; 60 mg (n = 6),0 n (%)
same,Dizziness postural (TEAE),[2]; 60 mg (n = 6),1 (16.7) n (%)
same,Euphoric mood (TEAE),[2]; 60 mg (n = 6),0 n (%)
same,Feeling abnormal (TEAE),[2]; 60 mg (n = 6),0 n (%)
same,Feeling hot (TEAE),[2]; 60 mg (n = 6),0 n (%)
same,Feeling of relaxation (TEAE),[2]; 60 mg (n = 6),0 n (%)
same,Headache (TEAE),[2]; 60 mg (n = 6),1 (16.7) n (%)
same,Hunger (TEAE),[2]; 60 mg (n = 6),0 n (%)
same,Hyperhidrosis (TEAE),[2]; 60 mg (n = 6),0 n (%)
same,Irritability (TEAE),[2]; 60 mg (n = 6),0 n (%)
same,Lacrimation increased (TEAE),[2]; 60 mg (n = 6),0 n (%)
same,Mild TEAE,[2]; 60 mg (n = 6),5 (83.3) n (%)
same,Moderate TEAE,[2]; 60 mg (n = 6),0 n (%)
same,Orthostatic HR response increase (TEAE),[2]; 60 mg (n = 6),1 (16.7) n (%)
same,Paresthesia (TEAE),[2]; 60 mg (n = 6),0 n (%)
same,Somnolence (TEAE),[2]; 60 mg (n = 6),4 (66.7) n (%)
same,Toothache (TEAE),[2]; 60 mg (n = 6),0 n (%)
same,Tremor (TEAE),[2]; 60 mg (n = 6),0 n (%)
same,Vision blurred (TEAE),[2]; 60 mg (n = 6),0 n (%)
same,Yawning (TEAE),[2]; 60 mg (n = 6),0 n (%)
same,Any TEAE,[2]; 80 mg (n = 6),5 (83.3) n (%)
same,Asthenopia (TEAE),[2]; 80 mg (n = 6),1 (16.7) n (%)
same,Blood bilirubin increased (TEAE),[2]; 80 mg (n = 6),0 n (%)
same,Disturbance in attention (TEAE),[2]; 80 mg (n = 6),1 (16.7) n (%)
same,Dizziness postural (TEAE),[2]; 80 mg (n = 6),2 (33.3) n (%)
same,Euphoric mood (TEAE),[2]; 80 mg (n = 6),1 (16.7) n (%)
same,Feeling abnormal (TEAE),[2]; 80 mg (n = 6),0 n (%)
same,Feeling hot (TEAE),[2]; 80 mg (n = 6),0 n (%)
same,Feeling of relaxation (TEAE),[2]; 80 mg (n = 6),2 (33.3) n (%)
same,Headache (TEAE),[2]; 80 mg (n = 6),0 n (%)
same,Hunger (TEAE),[2]; 80 mg (n = 6),0 n (%)
same,Hyperhidrosis (TEAE),[2]; 80 mg (n = 6),0 n (%)
same,Irritability (TEAE),[2]; 80 mg (n = 6),1 (16.7) n (%)
same,Lacrimation increased (TEAE),[2]; 80 mg (n = 6),0 n (%)
same,Mild TEAE,[2]; 80 mg (n = 6),5 (83.3) n (%)
same,Moderate TEAE,[2]; 80 mg (n = 6),0 n (%)
same,Orthostatic HR response increase (TEAE),[2]; 80 mg (n = 6),0 n (%)
same,Paresthesia (TEAE),[2]; 80 mg (n = 6),1 (16.7) n (%)
same,Somnolence (TEAE),[2]; 80 mg (n = 6),5 (83.3) n (%)
same,Toothache (TEAE),[2]; 80 mg (n = 6),0 n (%)
same,Tremor (TEAE),[2]; 80 mg (n = 6),0 n (%)
same,Vision blurred (TEAE),[2]; 80 mg (n = 6),1 (16.7) n (%)
same,Yawning (TEAE),[2]; 80 mg (n = 6),0 n (%)
same,Moderate TEAEs,[2]; 90 mg,one instance of somnolence
same,Any TEAE,[2]; 90 mg (n = 6),6 (100) n (%)
same,Asthenopia (TEAE),[2]; 90 mg (n = 6),0 n (%)
same,Blood bilirubin increased (TEAE),[2]; 90 mg (n = 6),0 n (%)
same,Disturbance in attention (TEAE),[2]; 90 mg (n = 6),0 n (%)
same,Dizziness postural (TEAE),[2]; 90 mg (n = 6),0 n (%)
same,Euphoric mood (TEAE),[2]; 90 mg (n = 6),4 (66.7) n (%)
same,Feeling abnormal (TEAE),[2]; 90 mg (n = 6),1 (16.7) n (%)
same,Feeling hot (TEAE),[2]; 90 mg (n = 6),0 n (%)
same,Feeling of relaxation (TEAE),[2]; 90 mg (n = 6),1 (16.7) n (%)
same,Headache (TEAE),[2]; 90 mg (n = 6),0 n (%)
same,Hunger (TEAE),[2]; 90 mg (n = 6),0 n (%)
same,Hyperhidrosis (TEAE),[2]; 90 mg (n = 6),1 (16.7) n (%)
same,Irritability (TEAE),[2]; 90 mg (n = 6),1 (16.7) n (%)
same,Lacrimation increased (TEAE),[2]; 90 mg (n = 6),0 n (%)
same,Mild TEAE,[2]; 90 mg (n = 6),5 (83.3) n (%)
same,Moderate TEAE,[2]; 90 mg (n = 6),1 (16.7) n (%)
same,Orthostatic HR response increase (TEAE),[2]; 90 mg (n = 6),0 n (%)
same,Paresthesia (TEAE),[2]; 90 mg (n = 6),0 n (%)
same,Somnolence (TEAE),[2]; 90 mg (n = 6),4 (66.7) n (%)
same,Toothache (TEAE),[2]; 90 mg (n = 6),0 n (%)
same,Tremor (TEAE),[2]; 90 mg (n = 6),1 (16.7) n (%)
same,Vision blurred (TEAE),[2]; 90 mg (n = 6),0 n (%)
same,Yawning (TEAE),[2]; 90 mg (n = 6),1 (16.7) n (%)
same,Blood bilirubin increased (TEAE),[2]; All doses (n = 18),0 n
same,Feeling hot (TEAE),[2]; All doses (n = 18),0 n
same,Hunger (TEAE),[2]; All doses (n = 18),0 n
same,Lacrimation increased (TEAE),[2]; All doses (n = 18),0 n
same,Toothache (TEAE),[2]; All doses (n = 18),0 n
